Each compound was assayed against T1, Nuclear factor erythroid 2-related factor 2 (Homo sapiens) (UniProt Q16236) (assay: Activation of Nrf2 (unknown origin) expressed in human HepG2 cells after 5 hrs by ARE-driven luciferase reporter gene assay relative to control).
T1 sequence (whole entry): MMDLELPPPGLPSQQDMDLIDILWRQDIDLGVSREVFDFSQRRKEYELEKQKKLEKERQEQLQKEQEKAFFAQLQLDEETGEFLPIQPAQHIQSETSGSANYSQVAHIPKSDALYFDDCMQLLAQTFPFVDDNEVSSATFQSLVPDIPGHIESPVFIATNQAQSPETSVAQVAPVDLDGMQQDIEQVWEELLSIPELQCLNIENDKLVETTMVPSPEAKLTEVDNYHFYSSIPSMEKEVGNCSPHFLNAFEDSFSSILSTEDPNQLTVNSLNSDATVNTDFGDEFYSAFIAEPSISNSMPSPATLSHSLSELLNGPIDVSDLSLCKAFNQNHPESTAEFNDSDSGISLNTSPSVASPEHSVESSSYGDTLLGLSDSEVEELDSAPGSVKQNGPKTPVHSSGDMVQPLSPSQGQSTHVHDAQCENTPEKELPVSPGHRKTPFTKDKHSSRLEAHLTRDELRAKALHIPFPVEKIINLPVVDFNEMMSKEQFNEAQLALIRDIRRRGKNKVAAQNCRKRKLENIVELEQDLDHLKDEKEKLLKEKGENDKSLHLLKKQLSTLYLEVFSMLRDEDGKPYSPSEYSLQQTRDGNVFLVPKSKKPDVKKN
Format: cell-based
`Fc1cccc(/C=C/c2ccccc2)c1` showed a fold change (FC) of 4.9. Work on `Cc1ccc(/C=C/c2cccc(C(F)(F)F)c2)cc1` yielded a fold change (FC) of 19.2. With `COc1ccc(/C=C/c2cccc(F)c2)cc1` the fold change (FC) was 3.6. In the case of `COc1cccc(/C=C/c2ccccc2OC)c1`, the fold change (FC) is reported as 29.2. Work on `COc1ccc(/C=C/c2ccccc2F)cc1` yielded a fold change (FC) of 14.9. `COc1ccc(/C=C/c2cccc([N+](=O)[O-])c2)cc1` showed a fold change (FC) of 69. For `Fc1ccc(/C=C/c2cccc(F)c2)cc1`, the fold change (FC) was 4.5. Work on `COc1ccc(/C=C/c2ccc(OC)cc2OC)cc1` yielded a fold change (FC) of 15.6. Compound `Cc1ccc(/C=C/c2cccc([N+](=O)[O-])c2)cc1` has a fold change (FC) of 11.9. In the case of `COc1cccc(/C=C/c2ccc(F)cc2)c1`, the fold change (FC) is reported as 4.4. `Fc1ccc(/C=C/c2ccccc2)cc1` gave a fold change (FC) of 4.8. `Oc1ccc(/C=C/c2cc(O)cc(O)c2)cc1` was tested, and the fold change (FC) was 3.2. `Cc1ccc(/C=C/c2ccc(F)cc2)cc1` gave a fold change (FC) of 1.1. For `Fc1ccc(/C=C/c2ccc(F)cc2F)cc1`, the fold change (FC) was 16.8. `Fc1cccc(/C=C/c2cccc(F)c2)c1` gave a fold change (FC) of 7. `Fc1ccccc1/C=C/c1ccc(Cl)cc1` gave a fold change (FC) of 5.3. `Fc1cccc(/C=C/c2ccc(F)c(F)c2)c1` gave a fold change (FC) of 12.2. In the case of `Fc1cccc(F)c1/C=C/c1ccccc1`, the fold change (FC) is reported as 11.4. With `COc1ccc(/C=C/c2ccccc2Cl)cc1` the fold change (FC) was 17.8. `Fc1ccc(/C=C/c2ccccc2F)c(F)c1` was tested, and the fold change (FC) was 5. With `Fc1cccc(/C=C/c2cc(F)ccc2F)c1` the fold change (FC) was 10.7. `COc1ccccc1/C=C/c1ccccc1` showed a fold change (FC) of 23.1. `COc1ccc(/C=C/c2ccc(F)cc2)cc1` showed a fold change (FC) of 1.7. Work on `COc1ccc(/C=C/c2ccc(F)cc2)cc1OC` yielded a fold change (FC) of 1.6. `Cc1ccc(/C=C/c2cccc(F)c2)cc1` showed a fold change (FC) of 4.7. `COc1ccc(/C=C/c2cccc(F)c2)cc1OC` showed a fold change (FC) of 5.9. `Fc1cccc(/C=C/c2ccc(F)cc2F)c1` showed a fold change (FC) of 8.2. `COc1cccc(/C=C/c2cccc(F)c2)c1OC` showed a fold change (FC) of 19.4. `Fc1ccccc1/C=C/c1ccccc1` was tested, and the fold change (FC) was 10.7. Work on `COc1cccc(/C=C/c2cccc(F)c2)c1` yielded a fold change (FC) of 15.1. Compound `Fc1ccc(F)c(/C=C/c2ccccc2F)c1` has a fold change (FC) of 22.3. `COc1cccc(/C=C/c2ccccc2F)c1` showed a fold change (FC) of 14.4. In the case of `Fc1ccccc1/C=C/c1c(F)cccc1F`, the fold change (FC) is reported as 21.2. `COc1cccc(/C=C/c2ccc(C(F)(F)F)cc2)c1OC` gave a fold change (FC) of 65.5. For `Fc1ccc(/C=C/c2ccccc2F)cc1`, the fold change (FC) was 12.7. `COc1ccc(OC)c(/C=C/c2ccc(F)cc2)c1` showed a fold change (FC) of 10.7. In the case of `Fc1ccc(/C=C/c2cc(F)ccc2F)cc1`, the fold change (FC) is reported as 11.2. With `Fc1ccccc1/C=C/c1ccccc1F` the fold change (FC) was 13.9. In the case of `COc1cccc(/C=C/c2ccc(C)cc2)c1OC`, the fold change (FC) is reported as 16.1. Work on `Cc1ccc(/C=C/c2ccccc2F)cc1` yielded a fold change (FC) of 10.1. `Cc1ccc(/C=C/c2ccc(F)cc2F)cc1` was tested, and the fold change (FC) was 13.5. With `C[S+]([O-])CCCCN=C=S` (stereo not drawn) the fold change (FC) was 12.4. For `COc1ccc(/C=C/c2ccc(O)c(OC)c2)cc1`, the fold change (FC) was 27.7. Work on `COc1ccc(OC)c(/C=C/c2ccc(OC)cc2OC)c1` yielded a fold change (FC) of 12.9. `COc1ccccc1/C=C/c1ccccc1F` was tested, and the fold change (FC) was 18.4. Work on `COc1cccc(/C=C/c2ccc(C(C)C)cc2)c1OC` yielded a fold change (FC) of 33.9. In the case of `COc1cccc(/C=C/c2ccccc2)c1OC`, the fold change (FC) is reported as 25.4. Compound `COc1ccc(/C=C/c2cc(F)ccc2F)cc1` has a fold change (FC) of 17. Compound `Oc1ccc(/C=C/c2ccccc2F)cc1` has a fold change (FC) of 13.4. In the case of `O=[N+]([O-])c1cccc(/C=C/c2ccccc2)c1`, the fold change (FC) is reported as 18.6. Work on `COc1cccc(/C=C/c2ccc(F)cc2)c1OC` yielded a fold change (FC) of 16.9. For `Cc1ccc(/C=C/c2ccc(F)c(F)c2)cc1`, the fold change (FC) was 10.2.

These compounds were tested against T1, Nuclear factor erythroid 2-related factor 2 (Homo sapiens) (assay: Activation of Nrf2 (unknown origin) expressed in human HepG2 cells at 15 uM after 5 hrs by ARE-driven luciferase reporter gene assay relative to control).
Format: cell-based
Compound `Fc1cccc(/C=C/c2ccccc2F)c1` has a fold change (FC) of 8.5. For `COc1ccc(/C=C/c2ccc(F)c(F)c2)cc1`, the fold change (FC) was 4.6. Compound `COc1cccc(/C=C/c2cc(OC)ccc2OC)c1` has a fold change (FC) of 15.7. Compound `COc1ccc(/C=C/c2cccc(O)c2)cc1` has a fold change (FC) of 28.1. Compound `Fc1ccc(/C=C/c2ccccc2F)cc1F` has a fold change (FC) of 11.5. `Fc1ccc(/C=C/c2ccc(F)c(F)c2)cc1` gave a fold change (FC) of 7.

Reference: ChEMBL document CHEMBL3877327, “Activation of anti-oxidant Nrf2 signaling by substituted trans stilbenes” (Bioorg Med Chem, 2017)
